Measurements taken from patent publication US20230391780A1, “COMPOSITIONS AND METHODS FOR TREATING KIT- AND PDGFRA-MEDIATED DISEASES” (Blueprint Medicines Corporation, priority 2020, published 2023).
Like-named read-outs stand apart in the source and are kept apart here. Each block holds one compound with its values, some of them ahead of it.

Experiments:
PDGFRα D842V = PDGFRα D842V (Homo sapiens, UniProt P16234, D842V); assay: PDGFRα D842V biochemical enzymatic activity assay (EZReader 2 mobility shift); conditions: ATP at APPKM (25 μM), 90 minutes
Sequence of PDGFRα D842V (P16234 24-1089 D842V): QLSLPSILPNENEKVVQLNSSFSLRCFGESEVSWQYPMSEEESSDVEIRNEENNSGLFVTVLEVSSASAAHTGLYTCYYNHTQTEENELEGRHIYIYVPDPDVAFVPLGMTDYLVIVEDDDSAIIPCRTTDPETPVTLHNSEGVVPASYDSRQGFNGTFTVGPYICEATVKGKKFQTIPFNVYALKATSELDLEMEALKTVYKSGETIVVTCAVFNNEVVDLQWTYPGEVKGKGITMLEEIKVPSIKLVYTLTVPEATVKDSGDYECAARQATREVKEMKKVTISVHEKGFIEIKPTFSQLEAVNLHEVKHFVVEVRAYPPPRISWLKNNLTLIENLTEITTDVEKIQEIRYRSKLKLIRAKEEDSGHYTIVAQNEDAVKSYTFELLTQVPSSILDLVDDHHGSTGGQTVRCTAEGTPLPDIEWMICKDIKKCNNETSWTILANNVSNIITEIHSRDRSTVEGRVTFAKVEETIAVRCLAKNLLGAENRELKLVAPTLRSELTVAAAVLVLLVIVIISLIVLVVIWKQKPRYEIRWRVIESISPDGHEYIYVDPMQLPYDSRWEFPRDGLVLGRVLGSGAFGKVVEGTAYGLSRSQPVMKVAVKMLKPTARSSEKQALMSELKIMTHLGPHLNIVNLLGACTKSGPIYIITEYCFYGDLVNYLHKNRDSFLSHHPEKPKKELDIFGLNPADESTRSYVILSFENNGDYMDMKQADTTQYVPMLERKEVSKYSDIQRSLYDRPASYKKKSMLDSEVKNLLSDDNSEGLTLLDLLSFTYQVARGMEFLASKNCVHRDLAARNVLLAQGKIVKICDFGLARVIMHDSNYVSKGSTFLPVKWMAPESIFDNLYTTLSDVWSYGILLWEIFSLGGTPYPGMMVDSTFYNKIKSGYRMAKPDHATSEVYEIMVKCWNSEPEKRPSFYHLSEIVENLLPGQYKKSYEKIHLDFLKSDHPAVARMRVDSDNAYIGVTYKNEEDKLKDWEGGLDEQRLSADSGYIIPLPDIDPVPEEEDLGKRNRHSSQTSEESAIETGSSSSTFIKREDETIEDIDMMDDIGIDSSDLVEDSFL
Source text: (§1) PDGFRα and KIT enzymatic activity was monitored using the Perkin Elmer electrophoretic mobility shift technology platform, the EZReader 2.
(§2) Within the linear, steady-state phase of the kinase enzymatic reaction, the mixed pool of phosphorylated (product) and non-phosphorylated (substrate) peptides was passed through the microfluidic system of the PerkinElmer EZ Reader 2, under an applied electric potential difference. The presence of the phosphate group on the product peptide provided a difference in mass and charge between that of the substrate peptide, resulting in a separation of the substrate and product pools in the sample (Perrin et al., Expert Opin Drug Discovery 2010, Jan. 5(1):51-63).
(§3) As the product and substrate peptide mixture passes the lasers within the instrument, these pools are detected (λex=488 nm, λem=568 nm) and resolved as separate peaks. The ratio between these peaks reflects the activity of the compound at that concentration, in that well, under those conditions.
(§4) All test articles were dissolved in 100% DMSO at a stock concentration of 10 mM. A 100×, 10-point, 4-fold serial dilution of all test compounds was created in 100% DMSO, starting at a relevant concentration, usually 1 mM. A volume of 0.130 μL of each concentration was transferred to the relevant well of a 384-well assay plate (Greiner 781 201) using a TTPLabtech Mosquito nano-liter dispenser. Using the Multidrop, the remaining constituents of the reaction were then added to the 0.130 μL of compound as follows:
The reaction was stopped by the addition of 70 μl of Stop buffer (100 mM HEPES pH 7.5, 0.015% Brij 35, 35 mM EDTA and 0.2% of Coating Reagent 3, Caliper Lifesciences). The plate was read on a Caliper EZReader 2.

[1] = Pharmacokinetics after single intravenous and oral administration in rats; type: in vivo, Sprague-Dawley rats; conditions: iv 1 mg/kg, Clu=Cl/fu,plasma
Protocol: Assessment of pharmacokinetics following single intravenous and oral administration in rats: 3 Sprague-Dawley rats were employed for each compound for each route of administration (iv or oral). For iv administration, 1 mg/kg (dose volume=5 mL/kg) of each compound was administered by intravenous route via […] injection; whereas for oral route, 2.5 mg/kg (dose volume=5 mL/kg) was administered via oral gavage. Blood samples were obtained via tail vein at predose, 0.083, 0.25, 0.5, 1, 2, 4 and 8 hr. In addition, blood samples were also obtained at 24 hr via cardiac puncture (under anesthesia with Isoflurane) for terminal bleeding. All the blood samples were analyzed for the drug concentrations via LC/MS-MS. Pharmacokinetic parameters such as Cmax, Tmax, AUClast, AUCinf, MRTlast, MRTinf, T1/2, Vss and CL were obtained by non-compartmental analysis (NCA).

KIT D816V = KIT D816V (Homo sapiens, UniProt P10721, D816V); assay: KIT D816V biochemical enzymatic activity assay (EZReader 2 mobility shift); conditions: ATP at APPKM (20 μM), 60 minutes
Sequence of KIT D816V (P10721 26-976 D816V): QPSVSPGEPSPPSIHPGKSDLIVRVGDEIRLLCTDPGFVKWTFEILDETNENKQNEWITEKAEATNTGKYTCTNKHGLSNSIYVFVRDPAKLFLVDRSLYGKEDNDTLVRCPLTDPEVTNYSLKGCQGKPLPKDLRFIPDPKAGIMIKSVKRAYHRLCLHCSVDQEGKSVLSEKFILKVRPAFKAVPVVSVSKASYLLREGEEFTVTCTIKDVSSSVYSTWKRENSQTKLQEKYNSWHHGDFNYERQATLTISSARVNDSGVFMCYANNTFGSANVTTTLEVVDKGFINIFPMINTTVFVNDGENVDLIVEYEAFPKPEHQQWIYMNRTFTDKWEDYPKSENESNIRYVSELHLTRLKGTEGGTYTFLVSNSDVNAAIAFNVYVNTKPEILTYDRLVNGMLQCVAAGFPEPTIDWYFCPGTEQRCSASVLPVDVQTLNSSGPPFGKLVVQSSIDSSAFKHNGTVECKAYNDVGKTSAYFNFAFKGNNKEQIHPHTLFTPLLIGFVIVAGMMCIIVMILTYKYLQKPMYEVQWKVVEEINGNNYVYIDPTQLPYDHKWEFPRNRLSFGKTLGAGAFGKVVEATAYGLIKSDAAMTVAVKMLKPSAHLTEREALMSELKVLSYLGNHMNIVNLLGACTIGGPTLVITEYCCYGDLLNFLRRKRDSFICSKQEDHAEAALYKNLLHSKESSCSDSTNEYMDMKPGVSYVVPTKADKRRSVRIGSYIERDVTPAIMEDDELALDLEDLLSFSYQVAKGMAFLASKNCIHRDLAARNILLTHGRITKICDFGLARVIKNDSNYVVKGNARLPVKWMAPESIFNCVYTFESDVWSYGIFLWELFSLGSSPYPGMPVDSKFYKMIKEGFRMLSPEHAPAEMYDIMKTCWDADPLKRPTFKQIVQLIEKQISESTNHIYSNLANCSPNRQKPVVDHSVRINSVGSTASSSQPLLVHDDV
Source text: as §1, §2, §3, §4
The reaction was stopped by the addition of 70 μl of Stop buffer (100 mM HEPES pH 7.5, Brij 35, 35 mM EDTA and 0.2% of Coating Reagent 3, Caliper Lifesciences). The plate was read on a Caliper EZReader 2.

[2] = Brain penetration in rats, brain to plasma ratios after 24 h IV infusion; type: in vivo, Sprague-Dawley rats; conditions: for Kp uu at 24 h: Sprague-Dawley, brain / plasma, intravenous, 1 mg/kg/hr; for Kp uu at 24 h / Rat Kp: Table 3B; for Rat Kp: methods as for compound 4
Source text: To understand the brain penetration, brain to plasma ratios of the compounds were obtained in Sprague-Dawley (SD) rats. In vivo equilibrium distribution between blood and brain in preclinical species such as rats is a commonly used parameter to evaluate brain penetration. Kp,brain is the ratio of concentrations in brain and blood (Cbrain/Cplasma). The compound's passive diffusion characteristics, its affinity for membrane transporters at the blood-brain barrier (BBB), and the relative drug binding affinity differences between the plasma proteins and brain tissue influence the Kp,brain.
The animals received IV infusion of 1 mg/kg/hr of the compound over 24 hours via jugular vein cannulation. At 24 hours, blood was collected via tail vein bleeding or cardiac puncture (under anesthesia) and centrifuged to obtain plasma samples. Brain tissues were collected and homogenized with phosphate-buffered saline (PBS). The concentrations of the compounds were obtained in the plasma and brain homogenates by LC-MS/MS analysis.

[3] = target: T1, KIT D816V (HMC1.2 cells, KIT V560G and D816V) (Homo sapiens, UniProt P10721, D816V/V560G); assay: HMC1.2 autophosphorylation assay (phospho-Y719 KIT AlphaLISA); type: cell-based; conditions: 90 minutes, KIT autophosphorylation at tyrosine 719, read-out: KIT (P-KIT HMC1.2 (nM))
T1 construct: endogenous in cells; host or cells: HMC1.2 (mast cell leukemia cell line)
T1 sequence (P10721 26-976 V560G/D816V): as the sequence (P10721 26-976 D816V) above, with V535G counted along it
Protocol: 10,000 HMC1.2 cells were incubated in 22 μL culture media (phenol-red free IMDM, no serum) in each well of a 384-well plate and serum starved overnight in a tissue culture incubator (5% CO2, 37° C.). […] 10 μL of […] streptavidin donor beads (Perkin Elmer) were added to each well, blocked from light with solid black adhesive and shaken at 300 rpm at room temperature for 2 hours. Fluorescence signal was obtained on Envision (Perkin Elmer) by AlphaScreen 384 well HTS protocol.

wt KIT kinase = target: T2, wt KIT kinase (Homo sapiens, UniProt P10721); assay: Wild-type KIT Kd determination (phage-tagged kinase competition binding, qPCR)
T2 construct: made in house; host or cells: E. coli derived from BL21, infected with T7 phage
T2 sequence (P10721 26-976): as the sequence (P10721 26-976 D816V) above, with V791D counted along it
Protocol: Kd Determinations. For most assays, including wt KIT kinase, kinase-tagged T7 phage strains were prepared in an E. coli host derived from the BL21 strain. E. coli were grown to log-phase and infected with T7 phage and incubated with shaking at 32° C. until lysis. […] The liganded beads were blocked with excess biotin and washed with blocking buffer (SeaBlock (Pierce), 1% BSA, 0.05% Tween 20, 1 mM DTT) to remove unbound ligand and to reduce non-specific binding. […] Test compounds were prepared as 111×stocks in 100% DMSO. Kds were determined using an 11-point 3-fold compound dilution series with three DMSO control points. […] The compounds were then diluted directly into the assays such that the final concentration of DMSO was 0.9%. All reactions were performed in polypropylene 384-well plate. Each was a final volume of 0.02 ml. […] The kinase concentration in the eluates was measured by qPCR.
Binding Constants (Kds). Binding constants (Kds) were calculated with a standard dose-response curve using the Hill equation: Response=Background+Signal−Background 1+(KdHill Slope/DoseHill Slope). The Hill Slope was set to −1. Curves were fitted using a non-linear least square fit with the Levenberg-Marquardt algorithm.

[4] = rat, fu,brain from brain slice, read-out: Rat Kp, uu Brain slice

IC50 (PDGFRα D842V): ≤ 0.3 nM
SMILES: C[C@H](O)Cn1cc(-c2cc3c(N4CCN(c5ncc([C@@](C)(N)c6ccc(F)cc6)cn5)CC4)ncnn3c2)cn1 [Compound 7]

IC50 (PDGFRα D842V): ≤ 0.3 nM
SMILES: C[C@@H](O)Cn1cc(-c2cc3c(N4CCN(c5ncc([C@@](C)(N)c6ccc(F)cc6)cn5)CC4)ncnn3c2)cn1 [Compound 3]

IC50 (PDGFRα D842V): ≤ 0.3 nM
Rat IV PK (Clu) (mL/min/kg), unbound clearance [1]: (582) mL/min/kg
SMILES: C[C@](N)(c1ccc(F)cc1)c1cnc(N2CCN(c3ncnn4cc(-c5cnn(CCO)c5)cc34)CC2)nc1 [Compound 4, (S)-2-(4-(4-(4-(5-(1-Amino-1-(4-fluorophenyl)ethyl)pyrimidin-2-yl)piperazin-1-yl)pyrrolo[2,1-f][1,2,4]triazin-6-yl)-1H-pyrazol-1-yl)ethanol]

IC50 (KIT D816V): ≤ 0.3 nM
IC50 (PDGFRα D842V): ≤ 0.3 nM
Unbound concentration, Brain ([2]; rat, total mean brain concentration x fu,brain (homogenate)): 1.7
Unbound concentration, Plasma ([2]; rat, total mean plasma concentration x fu,p): 2.02
SMILES: CCn1cc(-c2cc3c(N4CCN(c5ncc([C@@](C)(N)c6ccc(F)cc6)cn5)CC4)ncnn3c2)cn1 [Comparator A, reference compound]

IC50 (PDGFRα D842V): ≤ 0.3 nM
SMILES: C[C@H](CO)n1cc(-c2cc3c(N4CCN(c5ncc([C@@](C)(N)c6ccc(F)cc6)cn5)CC4)ncnn3c2)cn1 [Compound 5, (R)-2-(4-(4-(4-(5-((S)-1-Amino-1-(4-fluorophenyl)ethyl)pyrimidin-2-yl)piperazin-1-yl)pyrrolo[2,1-f][1,2,4]triazin-6-yl)-1H-pyrazol-1-yl)propan-1-ol]

IC50 (PDGFRα D842V): ≤ 0.3 nM
SMILES: C[C@](N)(c1ccc(F)cc1)c1cnc(N2CCN(c3ncnn4cc(-c5cnn(C6(CO)CC6)c5)cc34)CC2)nc1 [Compound 9, (S)-(1-(4-(4-(4-(5-(1-Amino-1-(4-fluorophenyl)ethyl)pyrimidin-2-yl)piperazin-1-yl)pyrrolo[2,1-f][1,2,4]triazin-6-yl)-1H-pyrazol-1-yl)cyclopropyl)methanol]

IC50 (PDGFRα D842V): ≤ 0.3 nM
SMILES: CC(C)(CO)n1cc(-c2cc3c(N4CCN(c5ncc([C@@](C)(N)c6ccc(F)cc6)cn5)CC4)ncnn3c2)cn1 [Compound 2, (S)-2-(4-(4-(4-(5-(1-amino-1-(4-fluorophenyl)ethyl)pyrimidin-2-yl)piperazin-1-yl)pyrrolo[2,1-f][1,2,4]triazin-6-yl)-1H-pyrazol-1-yl)-2-methylpropan-1-ol]

IC50 (PDGFRα D842V): ≤ 0.3 nM
SMILES: C[C@@H](CO)n1cc(-c2cc3c(N4CCN(c5ncc([C@@](C)(N)c6ccc(F)cc6)cn5)CC4)ncnn3c2)cn1 [Compound 6, (S)-2-(4-(4-(4-(5-((S)-1-amino-1-(4-fluorophenyl)ethyl)pyrimidin-2-yl)piperazin-1-yl)pyrrolo[2,1-f][1,2,4]triazin-6-yl)-1H-pyrazol-1-yl)propan-1-ol]

IC50 (KIT D816V): 0.31 to 1 nM
IC50 (PDGFRα D842V): ≤ 0.3 nM
IC50 [3]: < 4.5 nM
Kp uu at 24 h [2, 4]: 0.07
Rat Kp [2]: 0.18
Kd (wt KIT kinase): < 10 nM
SMILES: C[C@](N)(c1ccc(F)cc1)c1cnc(N2CCN(c3ncnn4cc(-c5cnn([C@H]6CC[C@@H]6O)c5)cc34)CC2)nc1 (single isomer, unassigned) [Compound 10]

IC50 (KIT D816V): ≤ 0.3 nM
IC50 (PDGFRα D842V): ≤ 0.3 nM
IC50 [3]: < 4.5 nM
Kp uu at 24 h ([2]; rat, fu,brain from brain homogenate, read-out: Rat Kp, uu Homogenate): 0.06
Kp uu at 24 h [2, 4]: 0.03
Rat Kp [2]: 0.13
Kd (wt KIT kinase): < 10 nM
SMILES: C[C@](N)(c1ccc(F)cc1)c1cnc(N2CCN(c3ncnn4cc(-c5cnn([C@@H]6CC[C@H]6O)c5)cc34)CC2)nc1 (single isomer, unassigned) [Compound 11]

IC50 (PDGFRα D842V): ≤ 0.3 nM
SMILES: CC(C)(O)Cn1cc(-c2cc3c(N4CCN(c5ncc([C@@](C)(N)c6ccc(F)cc6)cn5)CC4)ncnn3c2)cn1 [Compound 1, (S)-1-(4-(4-(4-(5-(1-Amino-1-(4-fluorophenyl)ethyl)pyrimidin-2-yl)piperazin-1-yl)pyrrolo[2,1-f][1,2,4]triazin-6-yl)-1H-pyrazol-1-yl)-2-methylpropan-2-ol]

IC50 (PDGFRα D842V): ≤ 0.3 nM
SMILES: C[C@](N)(c1ccc(F)cc1)c1cnc(N2CCN(c3ncnn4cc(-c5cnn(CC6(O)CC6)c5)cc34)CC2)nc1 [Compound 8, (S)-1-((4-(4-(4-(5-(1-Amino-1-(4-fluorophenyl)ethyl)pyrimidin-2-yl)piperazin-1-yl)pyrrolo[2,1-f][1,2,4]triazin-6-yl)-1H-pyrazol-1-yl)methyl)cyclopropan-1-ol]
